Test results published in patent US8921383B2, “Thiazolopyrimidine compounds” (Hoffmann-La Roche Inc., priority 2011, dated 2014).

Target: T1, purified recombinant human SYK360-635 (Homo sapiens, UniProt P43405)
T1 construct: truncated construct of Spleen Tyrosine Kinase aa 360-635; GST; made in house
Assay: SYK kinase assay: 33P γATP incorporation into biotinylated peptide substrate, IC50 determination
Assay type: biochemical
Details: SYK 0.5 nM, ATP 20 μM, DYE peptide 5 μM, 30° C. 15 min; read-out: IC50 h-syk-gst-sf9-c (inactive-dephosphorylated)
Procedure: Determination of IC50 of Spleen Tyrosine Kinase (SYK) Inhibition:
SYK kinase assay is a standard kinase assay adapted to a 96 well plate format. This assay is performed in 96-well format for IC50 determination with […] which represented 10 half log dilutions and a 40 μL reaction volume. The assay measures the incorporation of radiolabeled ^33P γATP into an N-terminally biotinylated peptide substrate, derived from naturally occurring phosphoacceptor consensus sequence (Biotin-11aa DY*E). Phosphorylated products were detected upon termination of reactions with EDTA and the addition of Streptavidin coated beads.
Assay plates: 96-well MultiScreen 0.65 um filter plates (Millipore Cat. No.: MADVNOB10)
BSA: Bovine Serum Albumin Fraction V, fatty acid free (Roche Diagnostics GmbH, Cat. No. 9100221) diluted to a final concentration of 0.1%
Assay Dilution Buffer (ADB): 50 mM HEPES, 0.1 mM EGTA, 0.1 mM Na Vanadate, 0.1 mM β-glycerophosphate, 10 mM MgCl2, 1 mM DTT, 0.1% BSA, pH 7.5
Bead wash buffer: 10 g/L PBS (Phosphate buffered saline) with 2M NaCl+1% phosphoric acid.
DMSO and the mixture was incubated for 10 min at RT.
The kinase reaction was initiated by the addition of 10 μL 4× substrate cocktail containing the DYE peptide substrate [0 or 5 μM], ATP [20 μM] and ^33PγATP [2 μCi/r×n]. After incubation at 30° C. for 15 min, the reaction was terminated by the transfer of 25 μL of the reaction sample to a 96 well 0.65 μm Millipore MADVNOB membrane/plate containing 200 μL 5 mM EDTA and 20% Streptavidine coated beads in PBS.
After the last wash membrane/plates were transferred to an adaptor plate, heat dried for 15 min at 60° C., and 50 μL scintillation cocktail was added to each well and 4 h later the amount of radioactivity was counted in a top counter.

SMILES	IC50
COc1ccc(Nc2nc(N3CCC(NC(=O)c4ccc(C(N)=O)nc4)C3)nc3scnc23)cc1OC (centres unmarked) [Compound I-37, N5-(1-(7-(3,4-Dimethoxyphenylamino)thiazolo[5,4-d]pyrimidin-5-yl)pyrrolidin-3-yl)pyridine-2,5-dicarboxamide]	912 nM
COC(=O)c1ccc(C(=O)NC2CCN(c3nc(Nc4ccc(OC)c(OC)c4)c4ncsc4n3)C2)cn1 (centres unmarked) [Compound I-38, Methyl 5-(1-(7-(3,4-dimethoxyphenylamino)thiazolo[5,4-d]pyrimidin-5-yl)pyrrolidin-3-ylcarbamoyl)picolinate]	1950 nM
COc1ccc(Nc2nc(N3CCC(NC(=O)c4ccc(C(=O)O)nc4)C3)nc3scnc23)cc1OC (centres unmarked) [Compound I-39, 5-(1-(7-(3,4-Dimethoxyphenylamino)thiazolo[5,4-d]pyrimidin-5-yl)pyrrolidin-3-ylcarbamoyl)picolinic acid]	129 nM
COc1ccc(Nc2nc(N3CCCC(C(=O)Nc4ccc5c(c4)CC(=O)N5)C3)nc3scnc23)cc1OC (centres unmarked) [Compound I-40, 1-(7-(3,4-Dimethoxyphenylamino)thiazolo[5,4-d]pyrimidin-5-yl)-N-(2-oxoindolin-5-yl)piperidine-3-carboxamide]	5410 nM
COc1ccc(Nc2nc(N3CCCC(C(=O)Nc4ccc5[nH]ncc5c4)C3)nc3scnc23)cc1OC (centres unmarked) [Compound I-41, 1-(7-(3,4-Dimethoxyphenylamino)thiazolo[5,4-d]pyrimidin-5-yl)-N-(1H-indazol-5-yl)piperidine-3-carboxamide]	1690 nM
COc1ccc(Nc2nc(N3CCCC(C(=O)Nc4ccc(C(=O)O)c(OC)c4)C3)nc3scnc23)cc1OC (centres unmarked) [Compound I-43, 4-({1-[7-(3,4-Dimethoxy-phenylamino)-thiazolo[5,4-d]pyrimidin-5-yl]-piperidine-3-carbonyl}-amino)-2-methoxy-benzoic acid]	164 nM
COc1ccc(Nc2nc(N3CCCC(C(=O)Nc4ccc(-c5noc(=O)[nH]5)cc4)C3)nc3scnc23)cc1OC (centres unmarked) [Compound I-44, 1-(7-(3,4-Dimethoxyphenylamino)thiazolo[5,4-d]pyrimidin-5-yl)-N-(4-(5-oxo-4,5-dihydro-1,2,4-oxadiazol-3-yl)phenyl)piperidine-3-carboxamide]	136 nM
COc1ccc(Nc2nc(N3CCCC(C(=O)Nc4ccc5cn[nH]c5c4)C3)nc3scnc23)cc1OC (centres unmarked) [Compound I-45, 1-(7-(3,4-Dimethoxyphenylamino)thiazolo[5,4-d]pyrimidin-5-yl)-N-(1H-indazol-6-yl)piperidine-3-carboxamide]	922 nM
COc1ccc(Nc2nc(N3CCCC(C(=O)Nc4ccc5c(c4)CNC5=O)C3)nc3scnc23)cc1OC (centres unmarked) [Compound I-46, 1-(7-(3,4-Dimethoxyphenylamino)thiazolo[5,4-d]pyrimidin-5-yl)-N-(1-oxoisoindolin-5-yl)piperidine-3-carboxamide]	1030 nM
COc1ccc(Nc2nc(N3CCCC(C(=O)Nc4ccc(C(=O)O)c(O)c4)C3)nc3scnc23)cc1OC (centres unmarked) [Compound I-47, 4-(1-(7-(3,4-Dimethoxyphenylamino)thiazolo[5,4-d]pyrimidin-5-yl)piperidine-3-carboxamido)-2-hydroxybenzoic acid]	71 nM
COc1ccc(Nc2nc(N3CCCC(C(=O)NC4CNC(=O)C4)C3)nc3scnc23)cc1OC (centres unmarked) [Compound I-48, 1-(7-(3,4-Dimethoxyphenylamino)thiazolo[5,4-d]pyrimidin-5-yl)-N-(5-oxopyrrolidin-3-yl)piperidine-3-carboxamide]	4210 nM
COc1ccc(Nc2nc(N3CCCC(C(=O)Nc4cnccn4)C3)nc3scnc23)cc1OC (centres unmarked) [Compound I-49, 1-(7-(3,4-Dimethoxyphenylamino)thiazolo[5,4-d]pyrimidin-5-yl)-N-(pyrazin-2-yl)piperidine-3-carboxamide]	1520 nM
COc1ccc(Nc2nc(N3CCCC(C(=O)Nc4ccc5c(c4)C(=O)NC5=O)C3)nc3scnc23)cc1OC (centres unmarked) [Compound I-50, 1-(7-(3,4-Dimethoxyphenylamino)thiazolo[5,4-d]pyrimidin-5-yl)-N-(1,3-dioxoisoindolin-5-yl)piperidine-3-carboxamide]	1920 nM
COc1ccc(Nc2nc(N3CCCC(C(=O)Nc4ccc(-c5nnc(S)o5)cc4)C3)nc3scnc23)cc1OC (centres unmarked) [Compound I-51, 1-(7-(3,4-Dimethoxyphenylamino)thiazolo[5,4-d]pyrimidin-5-yl)-N-(4-(5-mercapto-1,3,4-oxadiazol-2-yl)phenyl)piperidine-3-carboxamide]	156 nM
COc1ccc(Nc2nc(N3CCCC(C(=O)Nc4ccc(-c5nnc(S)n5C)cc4)C3)nc3scnc23)cc1OC (centres unmarked) [Compound I-52, 1-(7-(3,4-Dimethoxyphenylamino)thiazolo[5,4-d]pyrimidin-5-yl)-N-(4-(5-mercapto-4-methyl-4H-1,2,4-triazol-3-yl)phenyl)piperidine-3-carboxamide]	441 nM
O=C(O)c1cccc(-c2nc(Nc3cccc(N4CC5(COC5)C4)c3)c3ncsc3n2)c1 [Compound I-53, 3-{7-[3-(2-Oxa-6-aza-spiro[3.3]hept-6-yl)-phenylamino]-thiazolo[5,4-d]pyrimidin-5-yl}-benzoic acid]	3870 nM
COc1ccc(Nc2nc(N3CCC(NC(=O)c4ccc(C(=O)O)cc4)C3)nc3scnc23)nc1OC (centres unmarked) [Compound I-55, 4-(1-(7-(5,6-Dimethoxypyridin-2-ylamino)thiazolo[5,4-d]pyrimidin-5-yl)pyrrolidin-3-ylcarbamoyl)benzoic acid]	6150 nM
COC(=O)c1cccc(-c2nc(Nc3cccc(C(F)(F)F)c3)c3ncsc3n2)c1 [Compound I-56, Methyl 3-(7-(3-(trifluoromethyl)phenylamino)thiazolo[5,4-d]pyrimidin-5-yl)benzoate]	3180 nM
O=C(O)c1cccc(-c2nc(Nc3cccc(C(F)(F)F)c3)c3ncsc3n2)c1 [Compound I-57, 3-[7-(3-Trifluoromethyl-phenylamino)-thiazolo[5,4-d]pyrimidin-5-yl]-benzoic acid]	4250 nM
COc1cc(Nc2nc(-c3cccc(C(N)=O)c3)nc3scnc23)cc(OC)c1OC [Compound I-58, 3-[7-(3,4,5-Trimethoxy-phenylamino)-thiazolo[5,4-d]pyrimidin-5-yl]-benzamide]	2250 nM
C[C@H]1CCCN1c1cccc(Nc2nc(N3CCCC(O)C3)nc3scnc23)c1 (stereo partly drawn) [Compound I-59, 1-(7-(3-((S)-2-Methylpyrrolidin-1-yl)phenylamino)thiazolo[5,4-d]pyrimidin-5-yl)piperidin-3-ol]	757 nM
COc1cc(Nc2nc(-c3ccc(C(N)=O)cc3)nc3scnc23)cc(N2CCC[C@@H]2C)c1 [Compound I-60, 4-{7-[3-Methoxy-5-((S)-2-methyl-pyrrolidin-1-yl)-phenylamino]-thiazolo[5,4-d]pyrimidin-5-yl}-benzamide]	1110 nM
COc1ccc(-c2nc(Nc3cccc(N4CCC[C@@H]4C)c3)c3ncsc3n2)cn1 [Compound I-61, (S)-5-(6-Methoxypyridin-3-yl)-N-(3-(2-methylpyrrolidin-1-yl)phenyl)thiazolo[5,4-d]pyrimidin-7-amine]	1040 nM
C[C@H]1CCCN1c1cccc(Nc2nc(-c3ccc(C(N)=O)cc3)nc3scnc23)c1 [Compound I-62, 4-{7-[3-((S)-2-Methyl-pyrrolidin-1-yl)-phenylamino]-thiazolo[5,4-d]pyrimidin-5-yl}-benzamide]	337 nM
COc1ccc(Nc2nc(-c3cccc(C(=O)Nc4ccc(C5SC(=O)NC5=O)cc4)c3)nc3scnc23)cc1OC (centres unmarked) [Compound I-63, 3-[7-(3,4-Dimethoxy-phenylamino)-thiazolo[5,4-d]pyrimidin-5-yl]-N-[4-(2,4-dioxo-thiazolidin-5-yl)-phenyl]-benzamide]	53 nM
COc1ccc(Nc2nc(-c3ccc(C(N)=O)cc3)nc3scnc23)cc1OC [Compound I-64, 4-[7-(3,4-Dimethoxy-phenylamino)-thiazolo[5,4-d]pyrimidin-5-yl]-benzamide]	113 nM
C[C@H]1CCCN1c1cccc(Nc2nc(-c3ccc(C(=O)NCCN(C)C)cc3)nc3scnc23)c1 [Compound I-65, (S)-N-(2-(Dimethylamino)ethyl)-4-(7-(3-(2-methylpyrrolidin-1-yl)phenylamino)thiazolo[5,4-d]pyrimidin-5-yl)benzamide]	351 nM
COc1ccc(Nc2nc(-c3ccc(C(=O)NCCN(C)C)cc3)nc3scnc23)cc1OC [Compound I-66, 4-(7-(3,4-Dimethoxyphenylamino)thiazolo[5,4-d]pyrimidin-5-yl)-N-(2-(dimethylamino)ethyl)benzamide]	278 nM
COc1ccc(Nc2nc(-c3cccc(C(N)=O)c3)nc3scnc23)cc1OC [Compound I-68, 3-[7-(3,4-Dimethoxy-phenylamino)-thiazolo[5,4-d]pyrimidin-5-yl]-benzamide]	233 nM
